In patent US11999728B2, “Estrogen receptor modulators” (Recurium IP Holdings, LLC, priority 2020, dated 2024):
pIC50: −log10 of the molar value.

How the values were obtained:
[1] = tested on: MCF7; test: Breast Cancer Cell Proliferation Assay (MCF-7), Cell Titer-Glo; type: cell-based; conditions: Homo sapiens, MCF7, 120 h, MCF7 cells, 5 days of compound exposure
How it was run: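 MCF7 cells in phenol red-free DMEM/F12 with charcoal-stripped FBS exposed 5 days to 10-point dilutions (10–0.000005 μM final), 17β-estradiol as control. Viability by CellTiter-Glo luminescence, background-subtracted and expressed relative to estrogen-only treated cells; day-1 pretreatment wells plated.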

[2] = Pharmacokinetic Determination (Mouse PK); type: in vivo, female CD-1 mice; conditions: female; for Kp at 2 h: CD-1, PO 10.0 mg/kg, Brain concentration vs plasma concentration at 2 hours post dosing, read-out: B/P ratio; for bioavailability: PO 10.0 mg/kg vs IV 3.0 mg/kg
Description: Pharmacokinetic Determination
Grouping female CD-1 mice weighing 20-30 g randomly to three groups; one group was administered with test compound at a dose of 3.0 mg/kg by intravenous injection, the other two groups were administered with test compound at a dose of 10.0 mg/kg by oral. The formulation for IV groups is DMSO/PEG400/30% HP-β-CD (5/20/75) and the formulation for PO groups is 25% HP-β-CD in 25 mM citrate buffer (pH3.0). After administering, blood samples of intravenous injection group were collected at time points of predose, 0.0833, 0.25, 0.5, 1, 2, 4, 8, 12 and 24 h; blood samples of oral group were collected at time points of predose, 0.25, 0.5, 1, 2, 4, 8, 12, and 24 h. Both blood samples and brain samples were collected at 2 hours post dosing for the second PO group. Standard curve was plotted based on concentrations of the samples in a suitable range, the concentrations of test compounds in plasma samples and brain samples were determined by using LC-MS/MS. Pharmacokinetic parameters were calculated according to drug concentration-time curve using a noncompartmental method by WinNonLin (Phoenix™, version 6.1) or other similar software.

[3] = tested on: MCF-7 Human Breast Cancer Orthotopic Model; test: Efficacy Study on MCF-7 Human Breast Cancer Orthotopic Model (tumor growth inhibition); type: in vivo, mouse; conditions: tumor growth inhibition = (1−(Td−T0)/(Cd−C0))×100%; MCF-7 orthotopic model
Description: Efficacy Study on MCF-7 Human Breast Cancer Orthotopic Model
The MCF-7 tumor cell line were maintained in vitro as monolayer culture in DMEM Medium supplemented with 15% heat inactivated fetal bovine serum at 37° C. in an atmosphere of 5% CO2 in air. The medium were renewed every 2 to 3 days and tumor cells were routinely subcultured at a confluence of 80%-90% by trypsin-EDTA, not to exceed 4-5 passages. The cells growing in an exponential growth phase were harvested and counted for tumor inoculation.
Each mouse was inoculated subcutaneously on the 2nd right mammary fat pad with the single cell suspension of 95% viable tumor cells (1.5×10^7) in 200 μL DMEM Matrigel mixture (1:1 ratio) without serum for the tumor development. The treatments were started when mean tumor size reached 195 mm^3.
The measurement of tumor size was conducted twice a week with a caliper and the tumor volume (mm^3) was estimated using the formula: TV=a×b^2/2 throughout the study, where “a” and “b” was long and short diameters of a tumor, respectively. The TVs were used for calculation of the tumor growth inhibition (TGI, an indicator of antitumor effectiveness) value using the formula: (1−(Td−T0)/(Cd−C0))×100%. Td and Cd are the mean tumor volumes of the treated and control animals, and T0 and C0 are the mean tumor volumes of the treated and control animals at the start of the experiment. The tumor regression was defined as individual tumor volume decrease (terminal TV compares to initial TV). The percent tumor regression was calculated using the formula: (1−(Td/T0))×100%.

[4] = Plasma and tumor PK analysis post final dosing in MCF-7 orthotopic model; type: in vivo, mouse; conditions: MCF-7 orthotopic model mice; for Tumor AUC: tumor samples 2 h, 8 h and 24 h post final dosing; for AUC / Kp: mouse; for AUC: plasma, post final dosing, 0.25-24 h; for Kp: tumor AUC vs plasma AUC, read-out: Tumor/Plasma ratio
Description: Plasma samples were collected with seven time points (0.25 h, 0.5 h, 1 h, 2 h, 4 h, 8 h, and 24 h) post final dosing for PK analysis. Tumor samples were collected with three time points (2 h, 8 h and 24 h) post final dosing for PK analysis.

Row | pIC50 [1] | Kp at 2 h [2] | AUC(0-t) ([2]; CD-1, plasma, PO, 10.0 mg/kg) [µM·h] | Cmax ([2]; CD-1, plasma, PO, 10.0 mg/kg) [nM] | Tmax ([2]; CD-1, plasma, PO, 10.0 mg/kg) [h] | half-life ([2]; CD-1, plasma, PO, 10.0 mg/kg) [h] | Tumor AUC [4] [ng·h/mL] | AUC [4] [ng·h/mL] | Kp [4] | AUC(0-t) ([2]; CD-1, plasma, IV, 3.0 mg/kg) [µM·h] | bioavailability ([2]; CD-1, plasma) [%] | clearance ([2]; CD-1, plasma, IV, 3.0 mg/kg) [mL/min/kg] | Structure (SMILES) | TGI [3] [%]
1 | ≥ 7.60 | 0.17 | 13.3 | 960 | 4 | 8.66 | 183743 | 10500 | 17.5 |  |  |  | C[C@@H]1Cc2c([nH]c3ccccc23)[C@@H](c2c(F)cc(NC3CN(CCCF)C3)cc2F)N1CC(F)(F)CO [GDC9545, reference compound] | 130
2 | ≥ 7.60 | 12 | 3 | 240 | 2 |  | 360399 | 6780 | 53.1 | 1.03 | 87.7 |  | CCCN1CC(Nc2ccc([C@@H]3c4[nH]c5ccccc5c4C[C@@H](C)N3C34CC(C3)C4)cc2)C1 [Compound 31, N-(4-((1R,3R)-2-(bicyclo[1.1.1]pentan-1-yl)-3-methyl-2,3,4,9-tetrahydro-1H-pyrido[3,4-b]indol-1-yl)phenyl)-1-propylazetidin-3-amine] | 106
3 | ≥ 7.60 | 29.4 | 2.79 | 220 | 1 |  | 296719 | 5310 | 55.9 | 1.51 | 55.4 | 40 | C[C@@H]1Cc2c([nH]c3ccccc23)[C@@H](c2ccc(N[C@H]3CCN(CCCF)C3)cc2)N1C12CC(C1)C2 [Compound 42, (S)—N-(4-((1R,3R)-2-(bicyclo[1.1.1]pentan-1-yl)-3-methyl-2,3,4,9-tetrahydro-1H-pyrido[3,4-b]indol-1-yl)phenyl)-1-(3-fluoropropyl)pyrrolidin-3-amine] | 106
